According to ChEMBL document CHEMBL2069240, “Design, solvent free synthesis, and antimicrobial evaluation of 1,4 dihydropyridines” (2012):
≈ marks a conversion by molar mass, not a printed value.

Legend:
Escherichia coli [1] = assay: Antibacterial activity against ampicillin-resistant Escherichia coli clinical isolate; type: functional
Streptococcus pyogenes = assay: Antibacterial activity against Streptococcus pyogenes ATCC 19615; type: functional
Klebsiella pneumoniae [2] = assay: Antibacterial activity against ampicillin-resistant Klebsiella pneumoniae clinical isolate; type: functional
Klebsiella pneumoniae [3] = assay: Antibacterial activity against Klebsiella pneumoniae ATCC 7761; type: functional
Citrobacter koseri = assay: Antibacterial activity against Citrobacter koseri ATCC 27028; type: functional
Shigella dysenteriae = assay: Antibacterial activity against Shigella dysenteriae ATCC 32412; type: functional
Enterococcus faecalis = assay: Antibacterial activity against Enterococcus faecalis ATCC 51299; type: functional
Salmonella typhi = assay: Antibacterial activity against Salmonella typhi ATCC 700931; type: functional, Salmonella enterica subsp. enterica serovar Typhi; settings: Salmonella enterica
Bacillus subtilis = assay: Antibacterial activity against Bacillus subtilis ATCC 9372; type: functional
Staphylococcus aureus = assay: Antibacterial activity against Staphylococcus aureus ATCC 25923; type: functional
Pseudomonas aeruginosa = assay: Antibacterial activity against Pseudomonas aeruginosa ATCC 27853; type: functional
Escherichia coli [4] = assay: Ratio of ampicillin MIC to compound MIC for ampicillin-resistant Escherichia coli clinical isolate; type: functional
Klebsiella pneumoniae [5] = assay: Ratio of ampicillin MIC to compound MIC for ampicillin-resistant Klebsiella pneumoniae clinical isolate; type: functional
Escherichia coli [6] = assay: Antibacterial activity against Escherichia coli ATCC 25922; type: functional

Structure (SMILES)	MIC (Escherichia coli [1])	MIC (Streptococcus pyogenes)	MIC (Klebsiella pneumoniae [2])	MIC (Klebsiella pneumoniae [3])	MIC (Citrobacter koseri)	MIC (Shigella dysenteriae)	MIC (Enterococcus faecalis)	MIC (Salmonella typhi)	MIC (Bacillus subtilis)	MIC (Staphylococcus aureus)	MIC (Pseudomonas aeruginosa)	Ratio (Escherichia coli [4])	Ratio (Klebsiella pneumoniae [5])	MIC (Escherichia coli [6])
CCOC(=O)C1=C(C)NC(C)=C(C(=O)OCC)C1c1ccccc1	125 µg/mL (≈ 379 µM)	2500 µg/mL (≈ 7590 µM)	125 µg/mL (≈ 379 µM)	1250 µg/mL (≈ 3790 µM)	2500 µg/mL (≈ 7590 µM)	1250 µg/mL (≈ 3790 µM)	2500 µg/mL (≈ 7590 µM)	2500 µg/mL (≈ 7590 µM)	2500 µg/mL (≈ 7590 µM)	1250 µg/mL (≈ 3790 µM)	1250 µg/mL (≈ 3790 µM)	4	4	2500 µg/mL (≈ 7590 µM)
CCOC(=O)C1=C(C)NC(C)=C(C(=O)OCC)C1c1cccc([N+](=O)[O-])c1	125 µg/mL (≈ 334 µM)	2500 µg/mL (≈ 6680 µM)	125 µg/mL (≈ 334 µM)	2500 µg/mL (≈ 6680 µM)	2500 µg/mL (≈ 6680 µM)	2500 µg/mL (≈ 6680 µM)	2500 µg/mL (≈ 6680 µM)	1250 µg/mL (≈ 3340 µM)	2500 µg/mL (≈ 6680 µM)	1250 µg/mL (≈ 3340 µM)	5000 µg/mL (≈ 13400 µM)	4	4	2500 µg/mL (≈ 6680 µM)
CCOC(=O)C1=C(C)N=C(C)/C(=C(/O)OCC)C1	125 µg/mL (≈ 493 µM)	1250 µg/mL (≈ 4930 µM)	62.5 µg/mL (≈ 247 µM)	1250 µg/mL (≈ 4930 µM)	1250 µg/mL (≈ 4930 µM)	1250 µg/mL (≈ 4930 µM)	1250 µg/mL (≈ 4930 µM)	2500 µg/mL (≈ 9870 µM)	1250 µg/mL (≈ 4930 µM)	1250 µg/mL (≈ 4930 µM)	1250 µg/mL (≈ 4930 µM)	4	4	1250 µg/mL (≈ 4930 µM)
CCOC(=O)C1=C(C)NC(C)=C(C(=O)OCC)C1c1ccc(Cl)cc1	62.5 µg/mL (≈ 172 µM)	125 µg/mL (≈ 344 µM)	31.2 µg/mL (≈ 85.9 µM)	125 µg/mL (≈ 344 µM)	125 µg/mL (≈ 344 µM)	500 µg/mL (≈ 1370 µM)	125 µg/mL (≈ 344 µM)	500 µg/mL (≈ 1370 µM)	500 µg/mL (≈ 1370 µM)	125 µg/mL (≈ 344 µM)	500 µg/mL (≈ 1370 µM)	4	4	125 µg/mL (≈ 344 µM)
CCOC(=O)C1=C(C)NC(C)=C(C(=O)OCC)C1c1ccccc1O	62.5 µg/mL (≈ 181 µM)	250 µg/mL (≈ 724 µM)	31.2 µg/mL (≈ 90.5 µM)	125 µg/mL (≈ 362 µM)	125 µg/mL (≈ 362 µM)	250 µg/mL (≈ 724 µM)	250 µg/mL (≈ 724 µM)	500 µg/mL (≈ 1450 µM)	250 µg/mL (≈ 724 µM)	250 µg/mL (≈ 724 µM)	250 µg/mL (≈ 724 µM)	4	4	250 µg/mL (≈ 724 µM)
CCOC(=O)C1=C(C)NC(C)=C(C(=O)OCC)C1c1ccc(O)cc1	125 µg/mL (≈ 362 µM)	2500 µg/mL (≈ 7240 µM)	125 µg/mL (≈ 362 µM)	2500 µg/mL (≈ 7240 µM)	2500 µg/mL (≈ 7240 µM)	5000 µg/mL (≈ 14500 µM)	2500 µg/mL (≈ 7240 µM)	5000 µg/mL (≈ 14500 µM)	2500 µg/mL (≈ 7240 µM)	2500 µg/mL (≈ 7240 µM)	5000 µg/mL (≈ 14500 µM)	4	4	2500 µg/mL (≈ 7240 µM)
CCOC(=O)C1=C(C)NC(C)=C(C(=O)OCC)C1c1ccc(OC)cc1	62.5 µg/mL (≈ 174 µM)	2500 µg/mL (≈ 6960 µM)	125 µg/mL (≈ 348 µM)	1250 µg/mL (≈ 3480 µM)	1250 µg/mL (≈ 3480 µM)	2500 µg/mL (≈ 6960 µM)	2500 µg/mL (≈ 6960 µM)	5000 µg/mL (≈ 13900 µM)	1250 µg/mL (≈ 3480 µM)	2500 µg/mL (≈ 6960 µM)	5000 µg/mL (≈ 13900 µM)	4	4	1250 µg/mL (≈ 3480 µM)
CCOC(=O)C1=C(C)NC(C)=C(C(=O)OCC)C1c1ccc(OC)c(OC)c1	125 µg/mL (≈ 321 µM)	1250 µg/mL (≈ 3210 µM)	125 µg/mL (≈ 321 µM)	2500 µg/mL (≈ 6420 µM)	2500 µg/mL (≈ 6420 µM)	1250 µg/mL (≈ 3210 µM)	1250 µg/mL (≈ 3210 µM)	1250 µg/mL (≈ 3210 µM)	125 µg/mL (≈ 321 µM)	1250 µg/mL (≈ 3210 µM)	1250 µg/mL (≈ 3210 µM)	4	4	2500 µg/mL (≈ 6420 µM)
CCOC(=O)C1=C(C)NC(C)=C(C(=O)OCC)C1c1ccccc1Cl	125 µg/mL (≈ 344 µM)	125 µg/mL (≈ 344 µM)	125 µg/mL (≈ 344 µM)	250 µg/mL (≈ 687 µM)	250 µg/mL (≈ 687 µM)	250 µg/mL (≈ 687 µM)	125 µg/mL (≈ 344 µM)	250 µg/mL (≈ 687 µM)	250 µg/mL (≈ 687 µM)	125 µg/mL (≈ 344 µM)	250 µg/mL (≈ 687 µM)	4	4	250 µg/mL (≈ 687 µM)
CCOC(=O)C1=C(C)NC(C)=C(C(=O)OCC)C1c1cccc(O)c1	125 µg/mL (≈ 362 µM)	1250 µg/mL (≈ 3620 µM)	62.5 µg/mL (≈ 181 µM)	500 µg/mL (≈ 1450 µM)	500 µg/mL (≈ 1450 µM)	125 µg/mL (≈ 362 µM)	1250 µg/mL (≈ 3620 µM)	500 µg/mL (≈ 1450 µM)	1250 µg/mL (≈ 3620 µM)	1250 µg/mL (≈ 3620 µM)	1250 µg/mL (≈ 3620 µM)	4	4	500 µg/mL (≈ 1450 µM)
CCOC(=O)C1=C(C)NC(C)=C(C(=O)OCC)C1c1ccc(O)c(OC)c1	31.2 µg/mL (≈ 83.2 µM)	125 µg/mL (≈ 333 µM)	31.2 µg/mL (≈ 83.2 µM)	125 µg/mL (≈ 333 µM)	125 µg/mL (≈ 333 µM)	125 µg/mL (≈ 333 µM)	125 µg/mL (≈ 333 µM)	125 µg/mL (≈ 333 µM)	125 µg/mL (≈ 333 µM)	125 µg/mL (≈ 333 µM)	125 µg/mL (≈ 333 µM)	4	4	125 µg/mL (≈ 333 µM)
CCOC(=O)C1=C(C)NC(C)=C(C(=O)OCC)C1c1cc(OC)c(OC)c(OC)c1	250 µg/mL (≈ 596 µM)	2500 µg/mL (≈ 5960 µM)	250 µg/mL (≈ 596 µM)	2500 µg/mL (≈ 5960 µM)	2500 µg/mL (≈ 5960 µM)	1250 µg/mL (≈ 2980 µM)	1250 µg/mL (≈ 2980 µM)	1250 µg/mL (≈ 2980 µM)	1250 µg/mL (≈ 2980 µM)	1250 µg/mL (≈ 2980 µM)	2500 µg/mL (≈ 5960 µM)	4	4	2500 µg/mL (≈ 5960 µM)
CCOC(=O)C1=C(C)NC(C)=C(C(=O)OCC)C1c1cc(OC)ccc1OC	250 µg/mL (≈ 642 µM)	250 µg/mL (≈ 642 µM)	125 µg/mL (≈ 321 µM)	250 µg/mL (≈ 642 µM)	250 µg/mL (≈ 642 µM)	500 µg/mL (≈ 1280 µM)	250 µg/mL (≈ 642 µM)	500 µg/mL (≈ 1280 µM)	2500 µg/mL (≈ 6420 µM)	250 µg/mL (≈ 642 µM)	2500 µg/mL (≈ 6420 µM)	4	4	500 µg/mL (≈ 1280 µM)
CC1(C)S[C@@H]2[C@H](NC(=O)[C@H](N)c3ccccc3)C(=O)N2[C@H]1C(=O)O [AMPICILLIN]	> 2000 µg/mL	0.06 µg/mL (≈ 0.172 µM)	> 2000 µg/mL	500 µg/mL (≈ 1430 µM)	25 µg/mL (≈ 71.5 µM)	50 µg/mL (≈ 143 µM)	15 µg/mL (≈ 42.9 µM)	5 µg/mL (≈ 14.3 µM)	25 µg/mL (≈ 71.5 µM)	10 µg/mL (≈ 28.6 µM)	2 µg/mL (≈ 5.72 µM)			200 µg/mL (≈ 572 µM)
